# Experimental data as given in patent publication US12338220B2, “Antiviral pyrazolopiridinone compounds” (Novartis AG, priority 2019, dated 2025).
# Read-outs that look alike come from different tables or passages of the source.
# Experiments:
# HSV-polymerase = HSV-polymerase (Human herpesvirus 1 (strain 17) (HHV-1) (Human herpes simplex virus 1), UniProt P04293); assay: biochemical
# CMV-polymerase = CMV-polymerase (Human cytomegalovirus (strain AD169) (HHV-5) (Human herpesvirus 5), UniProt P08546); assay: biochemical
# [1] = CMV-polymerase Biochemical IC50
# [2] = read-out: CMV-polymerase Biochemical IC50
Structure (SMILES),IC50 (HSV-polymerase),IC50 (CMV-polymerase; [1]),IC50 (CMV-polymerase; [2])
"CC(O)COCC(C)(C)S(=O)(=O)C1(CN2CCc3c(C(=O)NCc4ccc(C#N)cc4)nn(C)c3C2=O)CC1 (single isomer, unassigned) [Example 91, (R)- or (S)-N-(4-Cyanobenzyl)-6-((1-((1-(2-hydroxypropoxy)-2-methylpropan-2-yl)sulfonyl)cyclopropyl)methyl)-1-methyl-7-oxo-4,5,6,7-tetrahydro-1H-pyrazolo[3,4-c]pyridine-3-carboxamide]",0.069 µM,0.005 µM,
"CC1=NOC(C(C)(C)S(=O)(=O)C2(CN3CCc4c(C(=O)NCc5ccc(C#N)cc5)nn(C)c4C3=O)CC2)C1 (single isomer, unassigned) [Example 111, (R)- or (S)-N-(4-Cyanobenzyl)-1-methyl-6-((1-((2-(3-methyl-4,5-dihydroisoxazol-5-yl)propan-2-yl)sulfonyl)cyclopropyl)methyl)-7-oxo-4,5,6,7-tetrahydro-1H-pyrazolo[3,4-c]pyridine-3-carboxamide]",0.148 µM,,0.005 µM
"CC1=NOC(C(C)(C)S(=O)(=O)C2(CN3CCc4c(C(=O)NCc5ccc(C#N)cc5)nn(C)c4C3=O)CC2)C1 (single isomer, unassigned) [Example 112, (R)- or (S)-N-(4-Cyanobenzyl)-1-methyl-6-((1-((2-(3-methyl-4,5-dihydroisoxazol-5-yl)propan-2-yl)sulfonyl)cyclopropyl)methyl)-7-oxo-4,5,6,7-tetrahydro-1H-pyrazolo[3,4-c]pyridine-3-carboxamide]",0.089 µM,,0.002 µM
"CC(O)CC(C)(C)S(=O)(=O)C1(CN2CCc3c(C(=O)NCc4ccc(C#N)cc4)nn(C)c3C2=O)CC1 (single isomer, unassigned) [Example 116, (R)- or (S)-N-(4-Cyanobenzyl)-6-((1-((4-hydroxy-2-methylpentan-2-yl)sulfonyl)cyclopropyl)methyl)-1-methyl-7-oxo-4,5,6,7-tetrahydro-1H-pyrazolo[3,4-c]pyridine-3-carboxamide]",0.048 µM,0.002 µM,
"COCC(C)(CO)S(=O)(=O)C1(CN2CCc3c(C(=O)NCc4ccc(C#N)cc4)nn(C)c3C2=O)CC1 (single isomer, unassigned) [Example 182, (R)- or (S)-N-(4-Cyanobenzyl)-6-((1-((1-hydroxy-3-methoxy-2-methylpropan-2-yl)sulfonyl)cyclopropyl)methyl)-1-methyl-7-oxo-4,5,6,7-tetrahydro-1H-pyrazolo[3,4-c]pyridine-3-carboxamide]",0.046 µM,0.002 µM,
"Cn1nc(C(=O)NCc2ccc(C#N)cc2)c2c1C(=O)N(CC1(S(=O)(=O)C(C)(C)C(O)C(C)(C)N)CC1)CC2 (single isomer, unassigned) [Example 211, (R)- or (S)-6-((1-((4-Amino-3-hydroxy-2,4-dimethylpentan-2-yl)sulfonyl)cyclopropyl)methyl)-N-(4-cyanobenzyl)-1-methyl-7-oxo-4,5,6,7-tetrahydro-1H-pyrazolo[3,4-c]pyridine-3-carboxamide]",0.077 µM,0.009 µM,
"Cn1nc(C(=O)NCc2ccc(C#N)cc2)c2c1C(=O)N(CC1(S(=O)(=O)C(C)(C)C(O)C(C)(C)N)CC1)CC2 (single isomer, unassigned) [Example 212, (R)- or (S)-6-((1-((4-Amino-3-hydroxy-2,4-dimethylpentan-2-yl)sulfonyl)cyclopropyl)methyl)-N-(4-cyanobenzyl)-1-methyl-7-oxo-4,5,6,7-tetrahydro-1H-pyrazolo[3,4-c]pyridine-3-carboxamide]",0.039 µM,0.003 µM,
"CC(O)Cn1nc(C(=O)NCc2ccc(C#N)cc2)c2c1C(=O)N(CC1(S(=O)(=O)C3CC3)CC1)CC2 (single isomer, unassigned) [Example 226, (R)- or (S)-N-(4-cyanobenzyl)-6-((1-(cyclopropylsulfonyl)cyclopropyl)methyl)-1-(2-hydroxypropyl)-7-oxo-4,5,6,7-tetrahydro-1H-pyrazolo[3,4-c]pyridine-3-carboxamide]",0.101 µM,0.002 µM,
